Reference: PubChem BioAssay (NCI)
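Where inhibition never reached the appropriate level, the endpoint shown equals the highest concentration tested. Otherwise, values were interpolated linearly from a five-concentration, 48-hour dose response in 96-well plates. The concentration for full growth arrest is given as TGI.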

Legend:
Assay in all cases: NCI tumour cell line growth inhibition, 48 h
HCC-2998 colon = tested on: HCC-2998 colon
SNB-75 CNS = tested on: SNB-75 CNS
NCI-H522 lung = tested on: NCI-H522 lung
CCRF-CEM leukemia = tested on: CCRF-CEM leukemia
SK-MEL-2 melanoma = tested on: SK-MEL-2 melanoma
LOX IMVI melanoma = tested on: LOX IMVI melanoma
SF-295 CNS = tested on: SF-295 CNS
HL-60(TB) leukemia = tested on: HL-60(TB) leukemia
NCI-H23 lung = tested on: NCI-H23 lung
COLO 205 colon = tested on: COLO 205 colon
SF-268 CNS = tested on: SF-268 CNS

| Compound | TGI (HCC-2998 colon) | TGI (SNB-75 CNS) | TGI (NCI-H522 lung) | TGI (CCRF-CEM leukemia) | TGI (SK-MEL-2 melanoma) | TGI (LOX IMVI melanoma) | TGI (SF-295 CNS) | TGI (HL-60(TB) leukemia) | TGI (NCI-H23 lung) | TGI (COLO 205 colon) | TGI (SF-268 CNS) |
| --- | --- | --- | --- | --- | --- | --- | --- | --- | --- | --- | --- |
| O=C(Nc1ccccc1)N(CCN(Cc1ccccc1)C(=O)Nc1ccccc1)CCN(Nc1ccccc1)C(=O)Nc1ccccc1 | > 100 µM | > 100 µM | > 100 µM | > 100 µM | > 100 µM | > 100 µM | > 100 µM | > 100 µM | > 100 µM | > 100 µM | > 100 µM |
| O=S1(=O)c2ccccc2N(O)C2=NCCN21 | > 100 µM | > 100 µM | > 100 µM | > 100 µM | > 100 µM | > 100 µM | > 100 µM | > 100 µM | > 100 µM | > 100 µM | > 100 µM |
| Cc1ccc(S(=O)(=O)n2cc(C=O)c(-c3cn(S(=O)(=O)c4ccc(C)cc4)cc3-c3cn(S(=O)(=O)c4ccc(C)cc4)cc3C=O)c2)cc1 | > 100 µM | > 100 µM | > 100 µM | > 100 µM | > 100 µM | 74.4 µM | > 100 µM | > 100 µM | > 100 µM | > 100 µM | > 100 µM |
| C#C[C@]1(O)CC[C@H]2[C@@H]3CCC4=C/C(=N\OCCN5CCCCC5)CC[C@]4(C)[C@H]3CC[C@@]21C | 35.2 µM | 17.1 µM | 6.08 µM | > 53.8 µM | 8.76 µM | 16.5 µM | 10.6 µM | 6.23 µM | 17.5 µM | 7.43 µM | 21.7 µM |
| CN(O)C(=O)CCC(NC(=O)CCC(N)C(=O)O)C(=O)NCC(=O)O (stereo not given) | > 100 µM | > 100 µM | > 100 µM | > 100 µM | > 100 µM | > 100 µM | > 100 µM | > 100 µM | > 100 µM | > 100 µM | > 100 µM |
| ClCc1nc2ccccc2[nH]1 | > 100 µM | > 100 µM | > 100 µM | > 100 µM | > 100 µM | > 100 µM | > 100 µM | > 100 µM | > 100 µM | > 100 µM | > 100 µM |
| OC1NC2Nc3ccccc3NC2NC1O (stereo not given) | > 100 µM | > 100 µM | > 100 µM | > 100 µM | > 100 µM | > 100 µM | > 100 µM | > 100 µM | > 100 µM | > 100 µM | > 100 µM |
| COc1c2c(c3c(c1OC)c(=O)c1ccccc1n3C)OCO2 | > 100 µM | > 100 µM | > 100 µM | > 100 µM | > 100 µM | > 100 µM | > 100 µM | > 100 µM | > 100 µM | > 100 µM | > 100 µM |
| CC(C)(C)c1cc(/C=C(\C#N)C2=NCCO2)cc(C(C)(C)C)c1O | 8.77 µM | 7.47 µM | 9.06 µM | 9.35 µM | 8.55 µM | 18.8 µM | 9.8 µM | 5.87 µM | 13.4 µM | 3.39 µM | 16.1 µM |
| O=[N+]([O-])c1ncc(N(CCO)CCO)s1 | > 100 µM | > 100 µM | 35.6 µM | 56.9 µM | 45.3 µM | 31.9 µM | > 100 µM | 40.7 µM | > 100 µM | 49.6 µM | > 100 µM |
| COc1ccc(C2SCC(=O)N2c2ccc(-n3c(-c4ccccc4)nc4ccccc4c3=O)cc2)cc1 (stereo not given) | > 100 µM | 79.3 µM | > 100 µM | > 100 µM | > 100 µM | > 100 µM | > 100 µM | > 100 µM | > 100 µM | > 100 µM | > 100 µM |
| CCOC(=O)CNC(=O)C(CCC(=O)N(C)O)NC(=O)CCC(N)C(=O)O (stereo not given) | > 100 µM | > 100 µM | > 100 µM | > 100 µM | > 100 µM | > 100 µM | > 100 µM | > 100 µM | > 100 µM | > 100 µM | > 100 µM |
| COc1ccc(/C=C2\N=C(N3CCCC(CO)C3)NC2=O)cc1 (stereo not given) | > 100 µM | > 100 µM | > 100 µM | > 100 µM | > 100 µM | > 100 µM | > 100 µM | > 100 µM | > 100 µM | > 100 µM | > 100 µM |
| C[C@H](Nc1nc(N)c(N=O)c(=O)n1C)C(=O)O | > 10 µM | > 10 µM | > 10 µM | > 10 µM | > 10 µM | > 10 µM | > 10 µM | > 10 µM | > 10 µM | > 10 µM | > 10 µM |
| NC1=Nc2ccccc2Sc2nncn21 | > 100 µM | > 100 µM | > 100 µM | > 100 µM | > 100 µM | > 100 µM | > 100 µM | > 100 µM | > 100 µM | > 100 µM | > 100 µM |
| CCOP(=O)(OCC)Oc1c(OC)c2[nH]c(C(=O)OC)cc2c2c(C(=O)O)c[nH]c12 | > 100 µM | > 100 µM | > 100 µM | > 100 µM | > 100 µM | > 100 µM | > 100 µM | > 100 µM | > 100 µM | > 100 µM | > 100 µM |
| CCOC(=O)C(NC(=O)c1cccc(Cl)c1)(Nc1ccc(S(=O)(=O)Nc2cc(C)on2)cc1)C(F)(F)F (stereo not given) | > 100 µM | > 100 µM | > 100 µM | > 100 µM | > 100 µM | > 100 µM | 33.4 µM | > 100 µM | > 100 µM | > 100 µM | > 100 µM |
| COc1ccc2c(c1)c1c3c(ccc4ncn2c43)N(CCO)CCN=1 | 0.369 µM | 1.19 µM | 0.277 µM | 0.305 µM | 0.359 µM | 0.468 µM | 0.831 µM | 0.407 µM | 0.466 µM | 0.158 µM | 1.86 µM |
| CCOC(=O)c1c(O)cn2c1[nH]c1cccc3cccc2c31 | > 100 µM | > 100 µM | > 100 µM | > 100 µM | > 100 µM | > 100 µM | > 100 µM | > 100 µM | > 100 µM | > 100 µM | > 100 µM |
| CCn1c(SCC(=O)N/N=C2\SCC(=O)N2c2ccc(C)cc2)nc2ccccc2c1=O | > 100 µM | 36.6 µM | 62.1 µM | > 100 µM | > 100 µM | 55.6 µM | 36.2 µM | > 100 µM | 42.2 µM | > 100 µM | 47.7 µM |
